For test [1], the system named is serum antibodies of test subjects.
The test system is the same in test [2]. This is another data set of the same source.
The test system of test [3] is natural human antibodies. Format: binding.
Test [4] relates to natural human antibodies.
For test [5], the system named is commercial polyclonal antibody from rabbit. Kind of test: ELISA control: commercial polyclonal antibody binding to peptide coated on a maleimide plate. The source says: A commercial peptide […] (HA11-peptide), which has been used as a recognition tag on recombinant proteins was used as a control and for testing of analysis of binding between a free core peptide and human antibodies. Due to restricted availability of at least N-terminal sequence the peptide would not be very effective in immunization against the viral as therapy. This peptide is known to be antigenic in animals under immunization conditions and antibodies including polyclonals from rabbit, mice etc.
(An ELISA detects its analyte on a solid surface through an enzyme-linked reagent.)

Like-named read-outs stand apart in the source and are kept apart here.

Regarding “Biotin-aminocaproyl-CRPKVRDQC [Peptide 3B]”, in test [1], the “reaction with serum of test subject” value is “weaker reaction”. Moreover, the serum antibody response result in test [2] (person S5B, vaccinated against influenza, FIG. 5) is listed as “unusually high response”. Regarding “Biotin-aminocaproyl-CRPRVRNICG-NH4 [Peptide 1C]”, in test [1], the “comparison of the cyclic and linear peptide, reactivity with sera” value is on record as “more reactive with all subjects except S3B”; the “reaction with serum of test subject” value is recorded as “weaker reaction”; the “reactivity with sera of test subjects” value is reported as “Strong responses were observed from the serum of test subjects S5B an S7B”.

Turning to “Biotin-aminocaproyl-CRPWVRGVC [Peptide 4B]”, the “antibody binding, cyclic peptide compared with corresponding linear peptide” value in test [2] (sera S1B-S8B, FIG. 8) is listed as “bind generally more strongly antibodies than the corresponding linear peptide 3”. “Biotin-aminohexanoyl-SKAYSNC [Peptide P1-N]”: the “immune response of the 6 sera, order of reactivity” value is “reacted with sera in the order from strongest to weaker: 6, 3, 4, and 2, while 1 and 5 were weakly or non-reactive” with natural human antibodies [3]; “sera 3 and 4 showed strongest immune response before serum 2, while sera 1, 5 and 6 were weakly or non-reactive” in the test on natural human antibodies [4]. For “Biotin-aminohexanoyl-SYACKR [Peptide P2-N]”, the “immune response of the 6 sera, order of reactivity” value is “reacted with sera similarily but reactions with serum 5 was weaker and the serum 6 showed the strongest reponse” in the test on natural human antibodies [3]; “sera 2 and 5 showed strongest immune response before sera 3, 4 and 6, while serum 1 showed weakest reaction” with natural human antibodies [4]. With “CYPYDVPDYA [HA11-N Cys, commercial peptide used as a recognition tag on recombinant proteins, used as a control]”, the “binding of commercial polyclonal antibody from rabbit to the peptide” value in test [5] is “effective binding”.

The values above are taken from US20110191867A1.
